Source: patent US9504669B2, “Spliceostatin analogs and methods for their preparation” (PFIZER INC., priority 2012, dated 2016)

Experiments:
Type in all cases: cell-based
Conditions in all cases: free compounds (natural products and synthetic analogs), cell viability 96 hours after treatment
[1] = tested on: N87 (gastric cancer) cells; assay: In vitro cell assay (MTS cell viability), N87
Summary of the method: (§1)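 Cells seeded 24 h, then treated with antibody-drug conjugates or free drug, 3-fold serial dilutions at 10 concentrations in duplicate. Viability by MTS at 96 h as percent of untreated control; IC50 from four-parameter logistic fit.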

[2] = tested on: MDA-MB-361-DYT2 (breast cancer) cells; assay: In vitro cell assay (MTS cell viability), MDA-MB-361-DYT2
Summary of the method: as §1

[3] = tested on: BT474 (breast cancer) cells; assay: In vitro cell assay (MTS cell viability), BT474
Protocol: Target expressing (BT474 (breast cancer), N87 (gastric cancer), HCC1954 (breast cancer), MDA-MB-361-DYT2 (breast cancer)) or non-expressing (MDA-MB-468) cells were seeded in 96-well cell culture plates for 24 hours before treatment. Cells were treated with 3-fold serially diluted antibody-drug conjugates or free compounds (i.e., no antibody conjugated to the drug) in duplicate at 10 concentrations. Cell viability was determined by CellTiter 96® AQueous One Solution Cell Proliferation MTS Assay (Promega, Madison Wis.) 96 hours after treatment. Relative cell viability was determined as percentage of untreated control. IC50 values were calculated using a four parameter logistic model #203 with XLfit v4.2 (IDBS, Guildford, Surry, UK). The potency ranged upward from 0.0002 nm. Similar procedures and techniques were employed.

| Structure (SMILES) | IC50 ([1]; 96 h) | IC50 ([2]; 96 h) | IC50 ([3]; Homo sapiens, BT-474) | IC50 [1] | IC50 [2] | IC50 [3] |
| --- | --- | --- | --- | --- | --- | --- |
| CC(=O)O[C@@H](C)/C=C\C(=O)N[C@@H]1C[C@H](C)[C@H](C/C=C(C)/C=C/[C@H]2O[C@H](CC(=O)NCc3cccc(N)c3)C[C@@]3(CO3)[C@@H]2O)O[C@@H]1C [#B89, (2S,3Z)-5-{[(2R,3R,5S,6S)-6-{(2E,4E)-5-[(3R,4R,5R,7S)-7-{2-[(3-aminobenzyl)amino]-2-oxoethyl}-4-hydroxy-1,6-dioxaspiro[2.5]oct-5-yl]-3-methylpenta-2,4-dien-1-yl}-2,5-dimethyltetrahydro-2H-pyran-3-yl]amino}-5-oxopent-3-en-2-yl acetate] | 1.91 nM | 7.99 nM | 3.56 nM |  |  |  |
| CC(=O)O[C@@H](C)/C=C\C(=O)N[C@@H]1C[C@H](C)[C@H](C/C=C(C)/C=C/[C@H]2O[C@H](CC(=O)N(C)Cc3ccc(S(=O)(=O)N(C)C)cc3)C[C@@]3(CO3)[C@@H]2O)O[C@@H]1C [#B91, (2S,3Z)-5-{[(2R,3R,5S,6S)-6-{(2E,4E)-5-[(3R,4R,5R,7S)-7-(2-{[4-(dimethylsulfamoyl)benzyl](methyl)amino}-2-oxoethyl)-4-hydroxy-1,6-dioxaspiro[2.5]oct-5-yl]-3-methylpenta-2,4-dien-1-yl}-2,5-dimethyltetrahydro-2H-pyran-3-yl]amino}-5-oxopent-3-en-2-yl acetate] | 0.783 nM | 3.78 nM | 3.02 nM |  |  |  |
| CC(=O)O[C@@H](C)/C=C\C(=O)N[C@@H]1C[C@H](C)[C@H](C/C=C(C)/C=C/[C@H]2O[C@H](CC(=O)NCc3cc(N)ccc3F)C[C@@]3(CO3)[C@@H]2O)O[C@@H]1C [#B92, (2S,3Z)-5-{[(2R,3R,5S,6S)-6-{(2E,4E)-5-[(3R,4R,5R,7S)-7-{2-[(5-amino-2-fluorobenzyl)amino]-2-oxoethyl}-4-hydroxy-1,6-dioxaspiro[2.5]oct-5-yl]-3-methylpenta-2,4-dien-1-yl}-2,5-dimethyltetrahydro-2H-pyran-3-yl]amino}-5-oxopent-3-en-2-yl acetate] | 1.5 nM | 6.18 nM | 2.28 nM |  |  |  |
| CC(=O)O[C@@H](C)/C=C\C(=O)N[C@@H]1C[C@H](C)[C@H](C/C=C(C)/C=C/[C@H]2O[C@H](CC(=O)NCc3ccc(S(=O)(=O)N(C)C)cc3)C[C@@]3(CO3)[C@@H]2O)O[C@@H]1C [#B93, (2S,3Z)-5-{[(2R,3R,5S,6S)-6-{(2E,4E)-5-[(3R,4R,5R,7S)-7-(2-{[4-(dimethylsulfamoyl)benzyl]amino}-2-oxoethyl)-4-hydroxy-1,6-dioxaspiro[2.5]oct-5-yl]-3-methylpenta-2,4-dien-1-yl}-2,5-dimethyltetrahydro-2H-pyran-3-yl[amino}-5-oxopent-3-en-2-yl acetate] |  |  |  | 0.647 nM | 3.96 nM | 2.27 nM |
| CNS(=O)(=O)c1ccc(CNC(=O)C[C@@H]2C[C@@]3(CO3)[C@H](O)[C@@H](/C=C/C(C)=C/C[C@@H]3O[C@H](C)[C@H](NC(=O)/C=C\[C@H](C)OC(C)=O)C[C@@H]3C)O2)cc1 [#B94, (2S,3Z)-5-{[(2R,3R,5S,6S)-6-{(2E,4E)-5-[(3R,4R,5R,7S)-4-hydroxy-7-(2-{[4-(methylsulfamoyl)benzyl]amino}-2-oxoethyl)-1,6-dioxaspiro[2.5]oct-5-yl]-3-methylpenta-2,4-dien-1-yl}-2,5-dimethyltetrahydro-2H-pyran-3-yl]amino}-5-oxopent-3-en-2-yl acetate] | 4.9 nM | 37.4 nM | 18.6 nM |  |  |  |
| CC(=O)O[C@@H](C)/C=C\C(=O)N[C@@H]1C[C@H](C)[C@H](C/C=C(C)/C=C/[C@@H]2C[C@]3(CO3)C[C@@H](CC(=O)NCCO)O2)O[C@@H]1C [#B95, ((2S,3Z)-5-{[(2R,3R,5S,6S)-6-{(2E,4E)-5-[(3S,5S,7S)-7-{2-[(2-hydroxyethyl)amino]-2-oxoethyl}-1,6-dioxaspiro[2.5]oct-5-yl]-3-methylpenta-2,4-dien-1-yl}-2,5-dimethyltetrahydro-2H-pyran-3-yl]amino}-5-oxopent-3-en-2-yl acetate] |  |  |  | 1.06 nM | 11.1 nM | 1.28 nM |
| CC(=O)O[C@@H](C)/C=C\C(=O)N[C@@H]1C[C@H](C)[C@H](C/C=C(C)/C=C/[C@@H]2C[C@]3(CO3)C[C@@H](CC(=O)N(C)Cc3ccc(S(=O)(=O)N(C)C)cc3)O2)O[C@@H]1C [#B96, (2S,3Z)-5-{[(2R,3R,5S,6S)-6-{(2E,4E)-5-[(3S,5S,7S)-7-(2-{[4-(dimethylsulfamoyl)benzyl](methyl)amino}-2-oxoethyl)-1,6-dioxaspiro[2.5]oct-5-yl]-3-methylpenta-2,4-dien-1-yl}-2,5-dimethyltetrahydro-2H-pyran-3-yl]amino}-5-oxopent-3-en-2-yl acetate] | 12.3 nM | 31.5 nM | 22.9 nM |  |  |  |
| CC(=O)O[C@@H](C)/C=C\C(=O)N[C@@H]1C[C@H](C)[C@H](C/C=C(C)/C=C/[C@@H]2C[C@]3(CO3)C[C@@H](CC(=O)NCc3ccc(S(N)(=O)=O)cc3)O2)O[C@@H]1C [#B97, (2S,3Z)-5-{[(2R,3R,5S,6S)-2,5-dimethyl-6-{(2E,4E)-3-methyl-5-[(3S,5S,7S)-7-{2-oxo-2-[(4-sulfamoylbenzyl)amino]ethyl}-1,6-dioxaspiro[2.5]oct-5-yl]penta-2,4-dien-1-yl}tetrahydro-2H-pyran-3-yl]amino}-5-oxopent-3-en-2-yl acetate] | 5.09 nM | 41.6 nM | 8.83 nM |  |  |  |
| CC(=O)O[C@@H](C)/C=C\C(=O)N[C@@H]1C[C@H](C)[C@H](C/C=C(C)/C=C/[C@@H]2C[C@]3(CO3)C[C@@H](CC(=O)NCc3ccc(S(=O)(=O)N(C)C)cc3)O2)O[C@@H]1C [#B98, (2S,3Z)-5-{[(2R,3R,5S,6S)-6-{(2E,4E)-5-[(3S,5S,7S)-7-(2-{[4-(dimethylsulfamoyl)benzyl]amino}-2-oxoethyl)-1,6-dioxaspiro[2.5]oct-5-yl]-3-methylpenta-2,4-dien-1-yl}-2,5-dimethyltetrahydro-2H-pyran-3-yl]amino}-5-oxopent-3-en-2-yl acetate] | 2.55 nM | 8.7 nM | 5.75 nM |  |  |  |
| CC(=O)O[C@@H](C)/C=C\C(=O)N[C@@H]1C[C@H](C)[C@H](C/C=C(C)/C=C/[C@@H]2C[C@]3(CO3)C[C@@H](CC(=O)NCCS(C)(=O)=O)O2)O[C@@H]1C [#B99, (2S,3Z)-5-{[(2R,3R,5S,6S)-2,5-dimethyl-6-{(2E,4E)-3-methyl-5-[(3S,5S,7S)-7-(2-{[2-(methylsulfonyl)ethyl]amino}-2-oxoethyl)-1,6-dioxaspiro[2.5]oct-5-yl]penta-2,4-dien-1-yl}tetraydro-2H-pyran-3-yl]amino}-5-oxopent-3-en-2-yl acetate] |  |  |  | 3.28 nM | 21.5 nM | 7.87 nM |
| CC(=O)O[C@@H](C)/C=C\C(=O)N[C@@H]1C[C@H](C)[C@H](C/C=C(C)/C=C/[C@@H]2C[C@]3(CO3)C[C@@H](CC(=O)NCc3ccc(N)cc3)O2)O[C@@H]1C [#B100, (2S,3Z)-5-{[(2R,3R,5S,6S)-6-{(2E,4E)-5-[(3S,5S,7S)-7-{2-[(4-aminobenzyl)amino]-2-oxoethyl}-1,6-dioxaspiro[2.5]oct-5-yl]-3-methylpenta-2,4-dien-1-yl}-2,5-dimethyltetrahydro-2H-pyran-3-yl]amino}-5-oxopent-3-en-2-yl acetate] | 5.05 nM | 16.9 nM | 10.6 nM |  |  |  |
